Measurements published in patent publication US10653709B2, “Methods of folding a graft copolymer with dual anticancer drugs and related applications” (priority 2014, dated 2020).

Tests used:
Format in all cases: cell-based
[1] = system: panel of 9 cancer cell lines; experiment: In vitro cytotoxicity across the panel; conditions: range over the panel, 48 hours; read-out: IC50s across cancer cell lines
Procedure: (§1) In vitro cytotoxicity of CPT, Dox, MB-20 and MB-20/Dox was measured using the 3-(4,5-dimethylthiazol-2-yl)-2,5-diphenyltetrazolium bromide (MTT) assay. Briefly, cancer cells were seeded in a 96-well plate at a density of 5,000 cells per well. After 12 h incubation, a series of drug dilution (1 nM to 300 μM) were added into wells. After 48 h of drug treatment, the cytotoxicity was measured using the MTT assay. To enhance the assay sensitivity, Sorensen's glycine buffer (0.1 M glycine, 0.1 M NaCl adjust pH to 10.5 with 0.1 N NaOH) was added into wells before absorbance assay. See Plumb et al., Cancer Res., 49, 4435-4440 (1989); Tai et al., Mol. Pharm., 8, 901-912 (2011); and Tai et al., Mol. Pharm., 10, 477-487 (2013). The absorbance at wavelength of 570 nm was measured using a microplate reader (Infinite® M200 PRO, Tecan, Mannedorf, Switzerland). The half-maximal inhibitory concentration (IC50) was calculated by fitting a concentration—absorbance curve using the Graphpad Prism 5 software (Graphpad Software Inc., San Diego, Calif., United States of America).

A549 = experiment: In vitro cytotoxicity, MTT assay; conditions: Homo sapiens; A549 (lung), 48 hours, mean ± SD
Procedure: as §1

MCF-7 = experiment: In vitro cytotoxicity, MTT assay; conditions: Homo sapiens, MCF7; MCF-7 (breast), 48 hours, mean ± SD
Procedure: as §1

PC-3 = experiment: In vitro cytotoxicity, MTT assay; conditions: Homo sapiens; PC-3 (prostate), 48 hours, mean ± SD
Procedure: as §1

NCI-H441 = experiment: In vitro cytotoxicity, MTT assay; conditions: Homo sapiens; NCI-H441 (lung), 48 hours, mean ± SD
Procedure: as §1

MDA-MB-231 = experiment: In vitro cytotoxicity, MTT assay; conditions: Homo sapiens; MDA-MB-231 (breast), 48 hours, mean ± SD
Procedure: as §1

MDA-MB-468 = experiment: In vitro cytotoxicity, MTT assay; conditions: Homo sapiens; MDA-MB-468 (breast), 48 hours, mean ± SD
Procedure: as §1

Hep G2 = experiment: In vitro cytotoxicity, MTT assay; conditions: Homo sapiens, HepG2; Hep G2 (liver), 48 hours, mean ± SD
Procedure: as §1

HeLa = experiment: In vitro cytotoxicity, MTT assay; conditions: Homo sapiens; HeLa (cervix), 48 hours, mean ± SD
Procedure: as §1

HL-60 = experiment: In vitro cytotoxicity, CellTiter-Glo Luminescent Cell Viability Assay; conditions: Homo sapiens, HL-60 (leukemia), suspension cells, mean ± SD

Structure (SMILES) | IC50 [1] [nM] | IC50 (A549) [nM] | IC50 (MCF-7) [nM] | IC50 (PC-3) [nM] | IC50 (NCI-H441) [nM] | IC50 (MDA-MB-231) [nM] | IC50 (MDA-MB-468) [nM] | IC50 (Hep G2) [nM] | IC50 (HeLa) [nM] | IC50 (HL-60) [nM]
CC[C@@]1(O)C(=O)OCc2c1cc1n(c2=O)Cc2cc3ccccc3nc2-1 [CPT, camptothecin] | 20 to 3300 | 300 | 1200 ± 1000 | 20 | 100 ± 200 | 600 ± 500 | 90 ± 90 | 600 ± 1400 | 3300 ± 1500 | 400 ± 1000
COc1cccc2c1C(=O)c1c(O)c3c(c(O)c1C2=O)C[C@@](O)(C(=O)CO)C[C@@H]3O[C@H]1C[C@H](N)[C@H](O)[C@H](C)O1 [Dox, doxorubicin] | – | 500 ± 800 | 300 | 200 ± 400 | 200 ± 400 | 100 | 100 | 500 ± 1400 | 1000 ± 1700 | 300
